Here are results for three compounds from patent US20180250270A1, “MUSCARINIC COMBINATION AND ITS USE FOR COMBATING HYPOCHOLINERGIC DISORDERS OF THE CENTRAL NERVOUS SYSTEM” (Chase Pharmaceuticals Corporation, priority 2015, published 2018).

Where two headings read alike, the source gives them in different places.

The nature of data set [1]: 6-month double-blind, placebo-controlled, parallel group trial of xanomeline in patients with Alzheimer disease. It is filed as in vivo, human. To be noted: in view of Mirza et al 2003; i.e. 225 mg/day. The text has this: A close analog of tazomeline, the 3-(4-hexyloxy-1,2,5-thiadiazol-3-yl)-1-methyl-5,6-dihydro-2H-pyridine known as xanomeline and described in U.S. Pat. No. 5,043,345, the disclosure of which is incorporated herein by reference in its entirety, has been disclosed as a muscarinic acetylcholine receptor agonist with reasonable selectivity for the M1 and M4 subtypes. The efficacy of xanomeline, which stimulates muscarinic receptors in the brain and in the periphery was studied in patients with Alzheimer disease in a 6-month double-blind, placebo-controlled, parallel group trial. […] Such side effects prevented the use of doses of xanomeline that could achieve maximum anti-dementia efficacy and reflect stimulation of cholinergic receptors outside the brain.
Dose-limiting adverse events attending the use of drugs that stimulate cholinergic transmission, such as xanomeline, appear to primarily reflect the excessive stimulation of peripheral cholinergic receptors, especially those of the muscarinic type (mAChRs), such that in both healthy volunteers and Alzheimer's patients many of these side effects have been reported for xanomeline; in the patient population this led to a discontinuation rate higher than 50% while the effects on cognition were not robust and mainly seen at the highest doses tested (Mirza 2003).

The conditions of data set [2]: cited from earlier work.
For data set [3] the following is noted: cited from earlier work. The source holds these as a separate data set.
In another data set the test system is muscarinic receptors. To be noted: cited from earlier work.
For data set [4] the following is noted: primate study; cited from earlier work.
In data set [5] the test system is peripheral cholinergic receptors. The note with it: rats; cited from earlier work.
Data set [6] shares this test system. To be noted: monkeys; cited from earlier work.
For data set [7] the following is noted: clinical trials for Alzheimer disease; cited from earlier work.

Consider `CCCCCCOc1nsnc1C1=CCCN(C)C1` [xanomeline, 3-(4-hexyloxy-1,2,5-thiadiazol-3-yl)-1-methyl-5,6-dihydro-2H-pyridine], for which the “maximum tolerated dose as considered in the context of the invention” value in data set [1] is listed as 75 mg three times per day. Moreover, in data set [2] (defined by Sramek et al.), the MTD is 100 mg three times a day. The minimum intolerated dose in data set [2] (human, in vivo) was 115 mg three times a day. The “patients who discontinued treatment” value in data set [3] (75 mg xanomeline orally three times daily, mainly adverse events, predominantly gastrointestinal) is given as 59%. Moreover, the “cognitive and behavioral symptoms of Alzheimer disease compared to placebo” value in data set [3] (6-month trial) is given as “significantly improve”. Besides, the discontinuation rate result in data set [3] (Alzheimer's patient population (Mirza 2003)) is on record as “higher than 50%”. Further, in data set [3] (bradycardia, gastro-intestinal distress, excessive salivation, sweating), the side effects result is “dose-dependent unacceptable side effects”.

Take `CCCCSc1nsnc1[C@H]1CN2CCC[C@H]1C2` [BuTAC, (5R,6R)-6-(3-butylthio-1,2,5-thiadiazol-4-yl)-1-azabicyclo[3.2.1]octane]: in the data set with muscarinic receptors, the “affinity for muscarinic receptors” value is reported as “high affinity”. Also, the vomiting entry in data set [4] is reported as “induced vomiting”.

Turning to `CO/N=C/C1=CCCN(C)C1` [milameline, (E)-N-methoxy-1-(1-methyl-1,2,5,6-tetrahydropyridin-3-yl)methanimine], the “doses producing central cholinergic action relative to peripheral action” value in data set [5] and in data set [6] was “at doses slightly higher than those stimulating peripheral cholinergic receptors” throughout. Moreover, in data set [7], the maximum tolerated dose is on record as 2 mg four times per day.
